Measured values published in ChEMBL document CHEMBL1667854, “6''-Azido-6''-deoxy-UDP-N-acetylglucosamine as a glycosyltransferase substrate” (Bioorg Med Chem Lett, 2011).
Active and inactive are the calls of the source. The calls are words filed in the database; no cut-off is given here.

Molecular target: T1, UDP-N-acetylglucosamine--peptide N-acetylglucosaminyltransferase 110 kDa subunit (Homo sapiens) (UniProt O15294)
T1 sequence (whole entry): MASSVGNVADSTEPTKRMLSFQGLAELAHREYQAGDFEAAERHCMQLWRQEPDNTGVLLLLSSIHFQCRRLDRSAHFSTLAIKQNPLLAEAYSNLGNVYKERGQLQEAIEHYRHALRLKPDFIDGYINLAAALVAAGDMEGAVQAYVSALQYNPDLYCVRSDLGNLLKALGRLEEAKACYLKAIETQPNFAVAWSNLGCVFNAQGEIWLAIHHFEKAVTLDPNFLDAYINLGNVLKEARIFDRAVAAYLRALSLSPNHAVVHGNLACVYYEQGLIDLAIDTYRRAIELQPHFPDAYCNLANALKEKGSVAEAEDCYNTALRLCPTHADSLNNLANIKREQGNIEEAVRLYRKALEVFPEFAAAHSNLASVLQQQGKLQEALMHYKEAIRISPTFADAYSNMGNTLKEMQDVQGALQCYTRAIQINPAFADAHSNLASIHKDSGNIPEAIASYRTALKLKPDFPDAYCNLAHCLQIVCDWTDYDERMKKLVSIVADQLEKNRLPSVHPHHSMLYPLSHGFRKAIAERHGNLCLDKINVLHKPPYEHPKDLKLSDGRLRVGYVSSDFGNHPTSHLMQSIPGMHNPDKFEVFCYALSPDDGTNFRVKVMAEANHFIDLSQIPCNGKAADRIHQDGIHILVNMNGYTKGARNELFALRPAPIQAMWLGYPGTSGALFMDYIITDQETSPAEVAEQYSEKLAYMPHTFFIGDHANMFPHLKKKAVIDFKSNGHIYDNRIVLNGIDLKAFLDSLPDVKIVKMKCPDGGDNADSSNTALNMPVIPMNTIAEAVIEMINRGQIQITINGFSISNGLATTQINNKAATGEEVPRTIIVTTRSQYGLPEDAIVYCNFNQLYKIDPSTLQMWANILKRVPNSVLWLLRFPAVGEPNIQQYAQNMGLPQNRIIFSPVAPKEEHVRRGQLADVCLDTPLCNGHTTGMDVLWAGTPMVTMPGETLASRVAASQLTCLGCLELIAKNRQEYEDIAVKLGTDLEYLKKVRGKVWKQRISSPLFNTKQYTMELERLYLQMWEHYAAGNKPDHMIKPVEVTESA
Assay: Activity at human OGT by Western blot analysis

Compound | Activity
CC(=O)N[C@@H]1[C@@H](O)[C@H](O)[C@@H](CN=[N+]=[N-])O[C@@H]1O | Active
CC(=O)N[C@H]1[C@@H](OP(=O)(O)OP(=O)(O)OC[C@H]2O[C@@H](n3ccc(=O)[nH]c3=O)[C@H](O)[C@@H]2O)O[C@H](CN=[N+]=[N-])[C@@H](O)[C@@H]1O | Active
